In brackets after ≈: the same amount, converted by molar mass.
Tests used:
[1] = system: clinical isolate of C. albicans; conditions: 10 mg/kg i.p. daily beginning 24 h after infection; cited from earlier work
Description: Despite the remarkable in vitro properties of HDPs, efforts to develop them as therapeutics have met with limited success. Barriers encountered include lack of peptide stability, toxicity, adverse proinflammatory properties, and poor bioavailability.

C. albicans 43001 = assay: MIC/MFC, broth microdilution (modified CLSI M27-A2); format: cell-based
Description: (§1) C. albicans strains were tested against RTD-1, fluconazole, and caspofungin in microdilution broth in accordance with Clinical and Laboratory Standards Institute (CLSI) document M27-A2 with the exception that 25 mM MOPS was used in place of 165 mM MOPS, as described previously. Overnight cultures were harvested by centrifugation, washed twice with Ca^2+ and Mg^2+-free PBS, pH 7.2, and suspended in test medium (RPMI 1640 medium, 25 mM MOPS, 2 mM L-glutamine) at 10^4 CFU/ml[62]. Incubations were conducted in flat bottom, 96-well microtiter plates (Greiner bio-one, Monroe, NC) containing 0.2 ml test medium per well. Duplicate 0.1 ml aliquots of serial two-fold dilutions of peptides and antifungal drugs were dispensed into wells, each of which was inoculated with 0.1 ml of fungal cell suspension containing 1 × 10^3 CFU. Plates were incubated at 30 °C for 48 hours after which A600 was determined using a SpectraMax M5e plate reader.
(§2) Minimal fungicidal concentration (MFC) was determined by plating, on YPD plates, 10 µl from wells in MIC assay without cell growth and the first well with measurable turbidity as described[63]–[66] and corresponding aliquots from the no-agent controls. […] MFC is reported as the lowest concentration of peptide or antifungal drug that killed ≥99% of the input organisms.
(§3) MICs and MFCs of RTD-1 were also performed in the presence of 50% mouse serum. Serum was prepared from blood collected by cardiac puncture from BALB/c mice. After coagulation at room temperature, serum was collected by centrifugation (200 g for 10 min followed by 23,000 g for 15 min), and diluted with an equal volume of yeast inoculum in MIC test medium described above.

C. albicans 53264 [2] = assay: as above; format: cell-based
Description: as §1, §2, §3

C. albicans SC5314 [3] = assay: as above; format: cell-based; conditions: Candida albicans
Description: as §1, §2, §3

[4] = system: C. albicans 53264 biofilms; assay: Biofilm XTT metabolic assay; format: cell-based; conditions: pre-adhesion, 2 h adherent and 24 h mature biofilms
Description: (§4) The antifungal activities of RTD-1, caspofungin and fluconazole were evaluated against biofilms of C. albicans SC5314 and 53264 essentially as described by Pierce et al.[67]. Briefly, biofilms established for 0 h (preadhesion), 2 h (adherent), or 24 h (mature) were developed by adding 1 × 10^5 yeast cells in 50 or 100 µl of RPMI-1640 to wells of flat-bottom 96-well microtiter plates (Costar, Corning, NY). Fifty or 100 µl aliquots of serial 2-fold dilutions of peptide or antifungal drugs were added to wells in triplicate and incubated for 24 h or 48 h prior to analysis of biofilm metabolic activities. Concentrations of reagents used were as follows: RTD-1 - 0.09 – 100 µg/ml (0.05–48 µM), Fluco – 1–250 µg/ml (3.3–816.3 µM); Caspo- 0.003–8 µg/ml ([…]–7.3 µM). Analysis of the effect of each agent on Candida biofilms was performed using an XTT colorimetric assay. One hundred µl of 1 µM XTT/menadione added to each biofilm well, plates were incubated in the dark for 3 h at 37 °C, and 80 µl of supernatant was transferred to a new 96-well flat-bottom microtiter plate (Greiner Bio-one, Monroe, NC). Absorbance was measured at 490 nm on a SpectraMax® i3x (Molecular Devices). Readings were plotted as average of triplicates after subtracting the corresponding values for negative controls (XTT/menadione only).

[5] = system: C. albicans SC5314 biofilms; assay: Biofilm XTT metabolic assay; format: cell-based; conditions: pre-adhesion conditions
Description: as §4

C. albicans SC5314 [6] = assay: Systemic candidiasis model, survival and renal fungal burden; format: in vivo, BALB/c mice
Description: The efficacy of RTD-1 in vivo was evaluated in an established model of systemic candidiasis using C. albicans SC5314. Both immunocompetent and immunosuppressed mouse models are employed in preclinical studies of systemic candidiasis. Since many of our preliminary studies employed the […] model, we conducted efficacy studies with RTD-1 and reference antifungal drugs in immunocompetent BALB/c mice. Mice were challenged i.v. with 3 × 10^5 blastospores at T = 0, which rapidly produces disseminated candidiasis and colonizes major organs in a manner resembling systemic candidiasis in humans. […] We analyzed the effect of a single 5 mg/kg dose of RTD-1 administered i.v., s.c., or i.p. immediately after i.v. fungal challenge, with i.p. saline as vehicle control. Fluco and Caspo, administered i.p. at 5 mg/kg, were used as drug comparators. […] In subsequent studies, antifungal agents were administered i.p. to circumvent potentially confounding effects resulting from treatment by the same route as infection, which was i.v. in all experiments.
(§5) BALB/c female mice (7–8 weeks old) and CD-1 female mice (4–5 weeks old) were obtained from Charles River Laboratories and allocated randomly in groups of five mice per cage. Mice were maintained on a 12 h light/dark cycle in thermostatically controlled rooms for the duration of the experiment. C. albicans inocula were prepared fresh each day from saturated cultures grown overnight in YPD medium, washed in sterile PBS, and fungi were counted with hemocytometer. Stock suspensions were prepared in sterile PBS. BALB/c mice were challenged with 2 × 10^6 CFU/ml wild-type C. albicans reference strain SC5314, while CD-1 mice were challenged with 1.8 × 10^7 CFU/ml (0.15–0.2 ml) C. albicans clinical isolate 53264 by i.v. injection into the lateral caudal tail vein using a 28 G 1/2 inch needle. Animals were treated by i.v., s.c., or i.p. routes immediately post-infection (p.i.) or 24 h p.i. with sterile saline (control), RTD-1, fluconazole, or caspofungin administered at the concentrations indicated in a 0.200 ml. Mice were weighted and monitored daily for general clinical condition. Mice were euthanized as approved by the USC IACUC and in compliance with the National Institutes of Health Guide for the Care and Use of Laboratory Animals. All experiments were repeated at least three times.
(§6) To assess systemic fungal clearance, renal fungal burden was determined. Mice were euthanized at times indicated, and both kidneys were weighed, homogenized in 5 ml of sterile PBS, and serial dilutions of homogenate were plated on YPD agar plates and incubated at 30 °C for 2 days. CFU per gram of kidney was calculated.

C. albicans 53264 [7] = assay: Systemic MDR candidiasis model, survival and renal fungal burden; format: in vivo, CD-1 mice; conditions: 5 mg/kg i.p. once per day for 7 days beginning 24 h p.i.; 1.8 × 10^7 blastospores i.v.; 40 days
Description: (as in Fig. 3d). CD-1, rather than BALB/c mice were used in the C. albicans 53264 challenge studies as this mouse strain was employed by Wiederhold et al. in the assessment of caspofungin efficacy against this pathogen. […] Fungal burdens were determined in kidneys of long term survivors in the RTD-1, Caspo, and Fluco-treated cohorts (euthanized at day 40) and from moribund mice from the survival study in Fig. 7a.
as §5, §6

| Compound | renal fungal burden [1] | survival [1] | MIC (C. albicans 43001; Candida albicans, 43001, 48 h) | MFC (C. albicans 43001; Candida albicans, 43001, RPMI, plating of MIC wells on YPD, ≥99% killing of input inoculum) | MIC (C. albicans 53264 [2]; Candida albicans, 53264, 48 h) | MFC (C. albicans 53264 [2]; Candida albicans, 53264, RPMI, plating of MIC wells on YPD, ≥99% killing of input inoculum) | MIC (C. albicans SC5314 [3]; RPMI 1640, 25 mM MOPS, 2 mM L-glutamine, 1 × 10^3 CFU/well, 30 °C, 48 h, A600, complete inhibition of growth, duplicate) | MFC (C. albicans SC5314 [3]; RPMI, plating of MIC wells on YPD, ≥99% killing of input inoculum) | biofilm inhibition (XTT) [4] | biofilm inhibition (XTT) [5] | survival (C. albicans SC5314 [6]; 5 mg/kg i.p. once a day for 7 days, first dose 24 h after infection, 30 d) | survival (C. albicans SC5314 [6]; single 5 mg/kg dose at T = 0 (RTD-1 i.v., s.c. or i.p.; Fluco, Caspo i.p.), 3 × 10^5 blastospores i.v., 30 days, vs saline) | survival (log-rank) (C. albicans 53264 [7]) |
| --- | --- | --- | --- | --- | --- | --- | --- | --- | --- | --- | --- | --- | --- |
| IDR-1018 | similarly modest reduction in renal fungal burden | modestly improved survival up to 8 days p.i. | – | – | – | – | – | – | – | – | – | – | – |
| OC(Cn1cncn1)(Cn1cncn1)c1ccc(F)cc1F [Fluco, fluconazole] | – | – | > 256 µg/mL | > 256 µg/mL | > 256 µg/mL | > 256 µg/mL | 64 µg/mL (≈ 209 µM) | > 256 µg/mL | highly resistant | more effective than RTD-1 at concentrations below 50 µg/ml | markedly enhanced survival | effective in enhancing survival | significantly (P < 0.0001) improved survival |
